From patent US9028845B2, “Chimeric immunomodulatory compounds and methods of using the same-IV” (Dynavax Technologies Corporation, priority 2001, dated 2015)
“Also recorded” adds a separate entry of the source.

System: human PBMCs
Assay: Human PBMC cytokine response assay (IFN-γ and IFN-α in cell-free medium by ELISA), with or without cPLGA;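 as to IFN-α (pg/ml) mean: 20 µg/mL compound for 24 hours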;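 as to IFN-γ (pg/ml) mean: 20 µg/mL compound for 24 hours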
Format: cell-based
Conditions: for immunomodulatory activity (IFN-γ / IFN-α secretion), in words: used alone (no cPLGA); for IFN-a / IFN-g / IFN-a mean / IFN-g mean: Table 25; for IFN-a mean / IFN-g mean: mean of donors 28250-28253
[1] = Table 24, mean of donors 28234-28237
[2] = donor 28250, polynucleotides/spacers at amounts equivalent to the CIC, spacers alone 9 uM
[3] = donor 28066, 20 ug/ml, 24 h, + PLGA = premixed with 100 μg/ml cPLGA
[4] = donor 28067, 20 ug/ml, 24 h, + PLGA = premixed with 100 μg/ml cPLGA
[5] = donor 28068, 20 ug/ml, 24 h, + PLGA = premixed with 100 μg/ml cPLGA
[6] = mean of Donors 3-4, 20 μg/ml, 24 h
[7] = mean of Donors 9-12, 20 μg/ml, 24 h
[8] = mean of donors 28065-28068, 20 ug/ml, 24 h, + PLGA = premixed with 100 μg/ml cPLGA
[9] = mean of donors 110, 112, 119, 120, Table 14
[10] = mean of donors 28057-28060, Table 16

## 5′-TCGTCGA-3′-C3-5′-TCGTCGA-3′-C3-5′-TCGTCGA-3′ all phosphorothioate linkages [Compound C-33]
Table 9, donor 28089
  IFN-α: 56 pg/mL
  IFN-γ: 0 pg/mL
Table 9, donor 28090
  IFN-α: 22 pg/mL
  IFN-γ: 0 pg/mL
Table 9, donor 28098
  IFN-α: 34 pg/mL
  IFN-γ: 0 pg/mL
Table 9, donor 28099
  IFN-α: 30 pg/mL
  IFN-γ: 3 pg/mL
Table 9, mean of donors
  IFN-α mean: 36 pg/mL
  IFN-γ mean: 1 pg/mL
Table 24, donor 28234
  IFN-α: 16 pg/mL
  IFN-γ: 23 pg/mL
Table 24, donor 28235
  IFN-α: 16 pg/mL
  IFN-γ: 86 pg/mL
Table 24, donor 28236
  IFN-α: 16 pg/mL
  IFN-γ: 247 pg/mL
Table 24, donor 28237
  IFN-α: 91 pg/mL
  IFN-γ: 2076 pg/mL
[1]
  IFN-α mean: 35 pg/mL
  IFN-γ mean: 608 pg/mL

## 5′-TCGTCGA-3′-HEG-5′-AGATGAT-3′-HEG-5′-ACGTTCG-3′ [Compound C-56]
Table 13, donor 28156
  IFN-α: 98 pg/mL
  IFN-γ: 1223 pg/mL
Table 13, donor 28157
  IFN-α: 415 pg/mL
  IFN-γ: 543 pg/mL
Table 13, donor 28158
  IFN-α: 57 pg/mL
  IFN-γ: 203 pg/mL
Table 13, donor 28159
  IFN-α: 131 pg/mL
  IFN-γ: 563 pg/mL
Table 13, mean of donors
  IFN-α mean: 175 pg/mL
  IFN-γ mean: 633 pg/mL
  immunomodulatory activity (IFN-γ / IFN-α secretion), in words: most active CICs

## 5′-TCCATTT-3′-HEG-5′-AACGTTC-3′-HEG-5′-TGACGTT-3′ [Compound C-61]
Table 13, donor 28156
  IFN-α: 3 pg/mL
  IFN-γ: 92 pg/mL
Table 13, donor 28157
  IFN-α: 0 pg/mL
  IFN-γ: 179 pg/mL
Table 13, donor 28158
  IFN-α: 47 pg/mL
  IFN-γ: 35 pg/mL
Table 13, donor 28159
  IFN-α: 0 pg/mL
  IFN-γ: 63 pg/mL
Table 13, mean of donors
  IFN-α mean: 13 pg/mL
  IFN-γ mean: 92 pg/mL
Formulated with cPLGA
  IFN-γ induction when formulated with cPLGA, in words: induced IFN-γ when formulated with cPLGA

## 5′-TCGACGT-3′ [Compound P-14, reference compound]
Donor 28250
  IFN-a: 16 pg/mL
[2]
  IFN-g: 10 pg/mL
Donor 28251
  IFN-a: 16 pg/mL
  IFN-g: 34 pg/mL
Donor 28252
  IFN-a: 16 pg/mL
  IFN-g: 11 pg/mL
Donor 28253
  IFN-a: 16 pg/mL
  IFN-g: 10 pg/mL
  IFN-a mean: 16 pg/mL
  IFN-g mean: 16 pg/mL

## 5′-TCGTCG-3′ [Compound P-2, reference compound]
Donor 3, 20 μg/ml, 24 h
  IFN-α (pg/ml) Donor 3: 0 pg/mL
  IFN-γ (pg/ml) Donor 3: 0 pg/mL
Donor 4, 20 μg/ml, 24 h
  IFN-α (pg/ml) Donor 4: 40 pg/mL
  IFN-γ (pg/ml) Donor 4: 4 pg/mL
Donor 9, 20 μg/ml, 24 h
  IFN-α Donor 9: 0
  IFN-γ Donor 9: 2
Donor 10, 20 μg/ml, 24 h
  IFN-α Donor 10: 2
  IFN-γ Donor 10: 3
Donor 11, 20 μg/ml, 24 h
  IFN-α Donor 11: 1
  IFN-γ Donor 11: 1
Donor 12, 20 μg/ml, 24 h
  IFN-α Donor 12: 4
  IFN-γ Donor 12: 2
Donor 28250
  IFN-a: 16 pg/mL
[2]
  IFN-g: 7 pg/mL
Donor 28251
  IFN-a: 16 pg/mL
  IFN-g: 25 pg/mL
Donor 28252
  IFN-a: 25 pg/mL
  IFN-g: 53 pg/mL
Donor 28253
  IFN-a: 16 pg/mL
  IFN-g: 1 pg/mL
  IFN-a mean: 18 pg/mL
  IFN-g mean: 22 pg/mL
  immunomodulatory activity (IFN-γ / IFN-α secretion), in words: did not have immunomodulatory activity; also recorded: had no activity
Donor 28065 (high background), 20 ug/ml, 24 h, + PLGA = premixed with 100 μg/ml cPLGA, 1000 = outside assay limits
  IFN-γ (pg/ml) 28065: 79 pg/mL
Donor 28065, 20 ug/ml, 24 h, + PLGA = premixed with 100 μg/ml cPLGA
  IFN-α (pg/ml) 28065: 0 pg/mL
[3]
  IFN-α (pg/ml) 28066: 3 pg/mL
  IFN-γ (pg/ml) 28066: 1 pg/mL
[4]
  IFN-α (pg/ml) 28067: 0 pg/mL
  IFN-γ (pg/ml) 28067: 1 pg/mL
[5]
  IFN-α (pg/ml) 28068: 0 pg/mL
  IFN-γ (pg/ml) 28068: 0 pg/mL
[6]
  IFN-α (pg/ml) mean: 20 pg/mL
  IFN-γ (pg/ml) mean: 2 pg/mL
[7]
  IFN-α mean: 2
  IFN-γ mean: 2
[8]
  IFN-α (pg/ml) mean: 1 pg/mL
  IFN-γ (pg/ml) mean: 20 pg/mL

## 5′-TCGAGAT-3′-HEG-5′-TCGAGAT-3′-HEG-5′-TCGAGAT-3′ [Compound C-45]
Table 10, donor 28042
  IFN-α: 62 pg/mL
  IFN-γ: 590 pg/mL
Table 10, donor 28043
  IFN-α: 123 pg/mL
  IFN-γ: 1466 pg/mL
Table 10, donor 28044
  IFN-α: 152 pg/mL
  IFN-γ: 984 pg/mL
Table 10, donor 28045
  IFN-α: 14 pg/mL
  IFN-γ: 253 pg/mL
Table 10, mean of donors
  IFN-α mean: 88 pg/mL
  IFN-γ mean: 823 pg/mL
Donor 28250
  IFN-a: 16 pg/mL
[2]
  IFN-g: 107 pg/mL
Donor 28251
  IFN-a: 109 pg/mL
  IFN-g: 26 pg/mL
Donor 28252
  IFN-a: 55 pg/mL
  IFN-g: 95 pg/mL
Donor 28253
  IFN-a: 382 pg/mL
  IFN-g: 8 pg/mL
  IFN-a mean: 140 pg/mL
  IFN-g mean: 59 pg/mL
Donor 110, Table 14
  IFN-α: 446 pg/mL
  IFN-γ: 880 pg/mL
Donor 112, Table 14
  IFN-α: 130 pg/mL
  IFN-γ: 192 pg/mL
Donor 119, Table 14
  IFN-α: 1074 pg/mL
  IFN-γ: 52 pg/mL
Donor 120, Table 14
  IFN-α: 428 pg/mL
  IFN-γ: 36 pg/mL
[9]
  IFN-α (pg/ml) mean: 520 pg/mL
  IFN-γ (pg/ml) mean: 290 pg/mL
Used alone
  IFN-α induction, in words: generated more IFN-α than CICs containing a 5′-TCGT-3′

## 5′-TCGACGT-3′-HEG-5′-TCGACGT-3′-HEG-5′-TCGACGT-3′ [Compound C-51]
HEG CIC vs C3 CIC
  IFN-α induced relative to C-90 (C3 CIC): 8 fold
Table 10, donor 28042
  IFN-α: 112 pg/mL
  IFN-γ: 795 pg/mL
Table 10, donor 28043
  IFN-α: 245 pg/mL
  IFN-γ: 1349 pg/mL
Table 10, donor 28044
  IFN-α: 240 pg/mL
  IFN-γ: 1114 pg/mL
Table 10, donor 28045
  IFN-α: 36 pg/mL
  IFN-γ: 411 pg/mL
Table 10, mean of donors
  IFN-α mean: 158 pg/mL
  IFN-γ mean: 917 pg/mL
Table 24, donor 28234
  IFN-α: 16 pg/mL
  IFN-γ: 17 pg/mL
Table 24, donor 28235
  IFN-α: 77 pg/mL
  IFN-γ: 123 pg/mL
Table 24, donor 28236
  IFN-α: 352 pg/mL
  IFN-γ: 193 pg/mL
Table 24, donor 28237
  IFN-α: 3798 pg/mL
  IFN-γ: 1580 pg/mL
[1]
  IFN-α mean: 1061 pg/mL
  IFN-γ mean: 478 pg/mL
Donor 28250
  IFN-a: 181 pg/mL
[2]
  IFN-g: 135 pg/mL
Donor 28251
  IFN-a: 246 pg/mL
  IFN-g: 45 pg/mL
Donor 28252
  IFN-a: 95 pg/mL
  IFN-g: 164 pg/mL
Donor 28253
  IFN-a: 1226 pg/mL
  IFN-g: 167 pg/mL
  IFN-a mean: 437 pg/mL
  IFN-g mean: 128 pg/mL
  immunomodulatory activity (IFN-γ / IFN-α secretion), in words: more active than other CG-containing CICs
Donor 110, Table 14
  IFN-α: 1408 pg/mL
  IFN-γ: 1528 pg/mL
Donor 112, Table 14
  IFN-α: 72 pg/mL
  IFN-γ: 240 pg/mL
Donor 119, Table 14
  IFN-α: 2200 pg/mL
  IFN-γ: 52 pg/mL
Donor 120, Table 14
  IFN-α: 622 pg/mL
  IFN-γ: 40 pg/mL
[9]
  IFN-α (pg/ml) mean: 1076 pg/mL
  IFN-γ (pg/ml) mean: 465 pg/mL
Used alone
  IFN-α induction, in words: generated more IFN-α than CICs containing a 5′-TCGT-3′
  IFN-γ induction, in words: similar

## 5′-TCGTCG-3′-(C3)15-5′-T-3′ [Compound C-13]
Donor 28057, Table 16
  IFN-α: 31 pg/mL
  IFN-γ: 2 pg/mL
Donor 28058, Table 16
  IFN-α: 0 pg/mL
  IFN-γ: 3 pg/mL
Donor 28059, Table 16
  IFN-α: 249 pg/mL
  IFN-γ: 12 pg/mL
Donor 28060, Table 16
  IFN-α: 0 pg/mL
  IFN-γ: 5 pg/mL
Formulated with cPLGA
  activity when formulated with cPLGA, in words: all had significant activity when formulated on cPLGA
[10]
  IFN-α (pg/ml) mean: 70 pg/mL
  IFN-γ (pg/ml) mean: 6 pg/mL
  immunomodulatory activity (IFN-γ / IFN-α secretion), in words: None of the CICs was active when used alone
